The target of assay [1] is T1, HSF-PLA2 (extracellular PLA2 obtained from human synovial fluid) (Homo sapiens, UniProt P14555).
T1 construct: extracellular enzyme obtained from human synovial fluid; from tissue; host or cells: human synovial fluid (pooled)
T1 sequence (P14555 21-144): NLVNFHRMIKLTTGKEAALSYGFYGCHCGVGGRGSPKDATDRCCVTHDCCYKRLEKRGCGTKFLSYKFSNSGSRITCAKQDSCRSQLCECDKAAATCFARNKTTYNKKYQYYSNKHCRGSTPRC
The assay can be described thus: Assay for inhibition of HSF-PLA2 in vitro. As to conditions: read-out: % Inhib of HSF-PLA2; for inhibition at 1 µM: 1 μM test compound; for inhibition at 5 µM: 5 μM test compound. The format is biochemical. The procedure: Assay for Inhibition of HSF-PLA2 In Vitro
The PLA2 used in this test is the extracellular enzyme obtained from human synovial fluid (HSF-PLA2).
The assay for HSF-PLA2 activity was a modification of the described method [Franson R., Dobrow R., Weiss, J., Elsbach P., and Weglick W. B., J. Lipid Res., 19, 18-23 (1978)] which was conducted using [1-^14 C]-oleate-labelled E. coli substrate in excess at a final concentration of 20,000 dpm/ml. This was equivalent to 18.2 mM of cell membrane phospholipid phosphorus and 2×10^9 autoclaved E. coli/ml. The optimal conditions which were developed for the assay of HSF-PLA2 inhibitors are summarized as follows. A total volume of 0.5 ml of reaction mixture typically had the following final composition: substrate (20,000 dpm/ml); enzyme (0.1% HSF, v/v); 2 mM CaCl2; 150 mM Na^+; 50 mM sodium HEPES buffer, pH 7.3; and 1% dimethyl sulfoxide (DMSO, used to solubilize test inhibitors) in the presence or absence of inhibitor. The reaction was initiated by the addition of HSF-PLA2 and duplicate samples of the mixture were incubated in 13×100 mm glass tubes with shaking for 30 minutes at 37° C. The reaction was terminated by the addition of 2.5 ml of chloroform-methanol (1 to 1.5, v/v). The extraction of lipids from the stopped reaction mixture was conducted by the further additions of 0.5 ml of chloroform and 1 ml of water with mixing. After centrifuging, the lower chloroform phase was transferred to smaller glass tubes and the solvent was evaporated to dryness with a nitrogen stream. The extracted lipid residue was redissolved in […] of a solution containing carrier oleic acid (0.2 mg/ml) in chloroform-methanol [9 to 1, v/v]). The whole lipid extract was applied to a preactivated (30 minutes at 110° C.) silica gel-impregnated glass fiber thin layer chromatography sheet (ITLC type SG sheet from Gelman Sciences Inc., Ann Arbor, Mich.) using hexane-acetic acid (100 to 1, v/v) as the developing solvent. This TLC system rapidly (6 minutes) resolved the enzymatically released product, ^14 C-oleic acid, from the unreacted ^14 C-phospholipid substrate. The unsaturated lipids were located on the chromatogram by a brief exposure to iodine vapor. The oleic acid zone (Rf value 0.95) and phospholipid zone (origin) were cut out, chopped into small pieces, shaken with 2 ml of ethanol-water (80 to 20, v/v) and 15 ml of Aquasol and counted for radio-activity. A control incubation of substrate in the absence of HSF-PLA2 was performed in each experiment. The PLA2 activity of the human synovial fluid was corrected for this small control value. […] The specific activity of PLA2 in the pooled human synovial fluid under the optimal assay conditions was 49.2 nmoles [1-^14 C]-oleic aid released hour^-1 mg^-1. The IC50 (μM concentration of test compound that produces 50% inhibition of PLA2 activity) was determined for each test compound.

The test system of assay [2] is croton oil-induced mouse ear edema. The assay can be described thus: Croton oil mouse ear edema test. The assay is classed as in vivo, male CD-1 mice. As to conditions: 1 mg topical, coapplied with croton oil; ear punch weight at 6 hours. The procedure: Croton Oil Mouse Ear Edema Test
The croton oil-induced mouse ear edema test, a model of irritant-induced contact dermatitis, has been used for evaluation of the PLA2 inhibitors by the topical route of administration. This test was carried out as described in the following references: […]
Twenty five μl of a 1% croton oil solution [dissolved in a mixture of pyridine/water/diethyl ether at a ratio of 5/20/75 (croton oil vehicle)] are applied to the outer side of the right ear of 3-4 week old male CD-1 mice (8 animals per group). The test compounds are dissolved directly in the 1% croton oil solution at various concentrations and coapplied. Control animals receive 25 μl of croton oil vehicle on the right ear. Biopsy punches are removed at 6 hours from the right ear of the animals using a 6 mm skin trephine (Roboz, Washington, D.C.) and the wet weight of the ear punches is determined. The weight of the biopsy punches is a measure of ear inflammation, primarily edema. The data are expressed as percent inhibition relative to control groups.
Statistical analysis of the mean edema values of the control versus the treated groups is performed using Student's t-test. The significance of changes from mean value for vehicle-treated animals is as follows (*p<0.05, **p<0.01, ***p<0.005, ns/not significant).

This is an account of results in US5298652A, “N-substituted glycines, inhibitors of phospholipase A2” (Hoffmann-La Roche Inc., priority 1992, dated 1994).

As to `CCCCCCCCCCCCCCOc1cc(OCCCCCCCCCCCCCC)cc(C(=O)N(CC(=O)O)CC(=O)O)c1` [Example 13, N-(Carboxymethyl)-N-[3,5-bis(tetradecyloxy)benzoyl]glycine], the inhibition at 1 µM in assay [1] worked out at 27%. The “% Inhib of Croton Oil Mouse Ear Edema (1 mg)” value (“% Inhib” below) in assay [2] came out at 60%.

On to `CCCCCCCCCCCCCCCCCCOc1cc(OCCCOc2ccc(OC)cc2)cc(C(=O)N(CC(=O)O)CC(=O)O)c1` [Example 20, N-(carboxymethyl)-N-[3-[3-(4-methoxyphenoxy)propoxy]-5-(octadecyloxy)benzoyl]glycine], for which the inhibition at 1 µM in assay [1] worked out at 18%. For the molecule `CCCCCCCCCCCCCCCCCCOc1cc(O)cc(C(=O)N(CC(=O)O)CC(=O)O)c1` [Example 39, N-(Carboxymethyl)-N-[3-hydroxy-5-(octadecyloxy)benzoyl]glycine], in assay [1], the inhibition at 5 µM is 20%. In addition, the “% Inhib” value in assay [2] was found to be 47%. As for `CCCCCCCCCCCCCCCCCC(=O)Nc1cccc(C(=O)N(CC(=O)O)CC(=O)O)c1` [Example 9, N-(carboxymethyl)-N-[3-(1-oxooctadecylamino)benzoyl]glycine], the inhibition at 5 µM in assay [1] is 8%. Moreover, in assay [2], the “% Inhib” value stood at 20%. As for `CCCCCCCCCCCCCCCCCCOc1cc(C(=O)O)cc(C(=O)N(CC(=O)O)CC(=O)O)c1` [Example 30, N-(Carboxymethyl)-N-[3-carboxy-5-(octadecyloxy)benzoyl]glycine], the inhibition at 5 µM in assay [1] stood at 23%. Regarding `CCCCCCCCCCCCCCCCCCOc1cc(OCCCOc2cccc(N)c2)cc(C(=O)N(CC(=O)O)CC(=O)O)c1` [Example 23, N-(Carboxymethyl)-N-[3-[3-(3-aminophenoxy)propoxy]-5-(octadecyloxy)benzoyl]glycine], the inhibition at 5 µM in assay [1] amounted to 50%. Also, in assay [2], the “% Inhib” value is 21%.

Consider `CCCCCCCCCCCCCCOc1ccc(C(=O)N(CC(=O)O)CC(=O)O)cc1OCCCCCCCCCCCCCC` [Example 51, N-(Carboxymethyl)-N-[3,4-bis(tetradecyloxy)benzoyl]glycine], for which the inhibition at 5 µM in assay [1] came to 38%. Consider `CCCCCCCCCCCCCCCCCCOc1cc(OCCCOc2ccccc2)cc(C(=O)N(CC(=O)O)CC(=O)O)c1` [Example 18, N-(Carboxymethyl)-N-[3-[3-(phenoxy)propoxy]-5-(octadecyloxy)benzoyl]glycine], for which the inhibition at 5 µM in assay [1] stood at 72%. For the same molecule, the “% Inhib” value in assay [2] was determined as 59%. Taken in the same sequence, the figures for `CCCCCCCCCCOc1cccc(C(=O)N(CC(=O)O)CC(=O)O)c1` [Example 6, N-(Carboxymethyl)-N-[3-(decyloxy)benzoyl]glycine] were 8% and 47%. For `CCCCCCCCCCCCCCCCCCOc1cc(OCc2ccccc2)cc(C(=O)N(CC(=O)O)CC(=O)O)c1` [Example 38, N-(Carboxymethyl)-N-[3-(octadecyloxy)-5-(phenylmethoxy)benzoyl]glycine], in assay [1], the inhibition at 5 µM amounted to 55%. Further, the “% Inhib” value in assay [2] stood at 35%. The matching figures for `CCCCCCCCCCCCCCCCCCOc1cc(OCCOc2ccc3ccccc3c2)cc(C(=O)N(CC(=O)O)CC(=O)O)c1` [Example 25]: -16% and 44%.

With `CCCCCCCCCCCCCCCCCCOc1cccc(CC(=O)N(CC(=O)O)CC(=O)O)c1` [Example 76, N-(Carboxymethyl)-N-[3-(octadecyloxy)phenylacetyl]glycine], in assay [1], the inhibition at 5 µM amounted to 45%. In addition, the “% Inhib” value in assay [2] is recorded as 38%. For `CCCCCCCCCCCCCCOc1cccc(C(=O)N(CC(=O)O)CC(=O)O)c1` [Example 5, N-(Carboxymethyl)-N-[3-(tetradecyloxy)benzoyl]glycine], the inhibition at 5 µM in assay [1] came to 13%. In the case of `CCCCCCCCCCCCCCCCCCOc1cccc(C(=O)C(=O)N(CC(=O)O)CC(=O)O)c1` [Example 69, N-(Carboxymethyl)-N-[2-[3-(octadecyloxy)phenyl]-1,2-dioxoethyl]glycine], in assay [1], the inhibition at 5 µM is 57%. The “% Inhib” value in assay [2] is reported as 28%. Take `CCCCCCCCCCCCCCCCCCOc1cccc(/C=C/C(=O)N(CC(=O)O)CC(=O)O)c1` [Example 78, (E)-N-(carboxymethyl)-N-[3-[(3-octadecyloxy)phenyl]-1-oxo-2-propenyl]glycine]: in assay [1], the inhibition at 5 µM was 68%. Moreover, in assay [2], the “% Inhib” value was found to be 48%. With `CCCCCCCCCCCCCCCCCCOc1cc(OCC(=O)O)cc(C(=O)N(CC(=O)O)CC(=O)O)c1` [Example 33, N-(Carboxymethyl)-N-[3-(carboxymethoxy)-5-(octadecyloxy)benzoyl]glycine], in assay [1], the inhibition at 1 µM amounted to 29%. For the same molecule, the “% Inhib” value in assay [2] was 71%. Regarding `CCCCCCCCCCCCCCCCCCOc1cccc(CCC(=O)N(CC(=O)O)CC(=O)O)c1` [Example 79, N-(Carboxymethyl)-N-[3-[(3-octadecyloxy)phenyl]-1-oxopropyl]glycine], the inhibition at 5 µM in assay [1] came out at 70%. As to `CCCCCCCCCCCCCCCCCCOc1cc(N)cc(C(=O)N(CC(=O)O)CC(=O)O)c1` [Example 44, N-(Carboxymethyl)-N-[3-amino-5-(octadecyloxy)benzoyl]glycine], in assay [1], the inhibition at 5 µM was 34%. Besides, the “% Inhib” value in assay [2] came to 35%. Turning to `CCCCCCCCCCCCCCCCCCOc1cccc(C(=O)NCC(=O)O)c1` [Example 74, N-[3-(Octadecyloxy)benzoyl]glycine], in assay [1], the inhibition at 5 µM came out at 23%. The “% Inhib” value in assay [2] came out at 33%.

Take `CCCCCCCCCCCCCCCCCCOc1cc(C(=O)N(CC(=O)O)CC(=O)O)cc([N+](=O)[O-])c1` [Example 43, N-(carboxymethyl)-N-[3-nitro-5-(octadecyloxy)benzoyl]glycine]: the inhibition at 5 µM in assay [1] turned out to be 10%. For the same molecule, the “% Inhib” value in assay [2] turned out to be 48%. Taken in the same sequence, the figures for `O=C(O)CCCCCCCCCCOc1cc(OCCCCCCCCCCC(=O)O)cc(C(=O)N(CC(=O)O)CC(=O)O)c1` [Example 35, N-(carboxymethyl)-N-[3,5-bis[(10-carboxydecyl)oxy]benzoyl]glycine] were 5% and 50%.

Consider `CCCCCCCCCCCCCCCCCCOc1cc(OCCCOc2cccc([N+](=O)[O-])c2)cc(C(=O)N(CC(=O)O)CC(=O)O)c1` [Example 22, N-(Carboxymethyl)-N-[3-[3-(3-nitrophenoxy)propoxy]-5-(octadecyloxy)benzoyl]glycine], for which the inhibition at 5 µM in assay [1] stood at 60%. Also, the “% Inhib” value in assay [2] came out at 54%.
